Assay results as given in patent publication US20230340061A1, “PEPTIDES AND METHODS FOR THE TREATMENT OF MULTIPLE SCLEROSIS” (IMCYSE SA, priority 2020, published 2023).

Columns and labels:
[1] = tested on: CD4+ T cells of patients with multiple sclerosis; assay: Generation of antigen specific CD4+ T cells, CD154 (CD40L) expression by flow cytometry; type: cell-based, human; details: for specific induction of effector cells (CD3+CD4+CD154+): overnight co-culture
Procedure: PBMCs were isolated from blood samples of patients with multiple sclerosis treated by dimethyl fumarate (DMF) on Lymphoprep density gradients.
(§1) CD14+ monocytes were isolated from these PBMCs by performing positive immunomagnetic separation with CD14 microbeads (Miltenyi Biotec, 130-050-201) according to the supplier recommendations. CD14+ monocytes were cultured for six days and maturated to generate autologous dendritic cells (mDC). CD19+ B cells were isolated from the CD14- PBMCs fraction by performing positive immunomagnetic separation with CD19 microbeads (Miltenyi Biotec, 130-050-301) according to the supplier recommendations. CD19+ B cells were cultured and immortalized with EBV to generate autologous lymphoblastoid cell lines (LCL).
(§2) Naïve CD4+ T cells were also purified from the CD14- PBMCs fraction by performing negative immunomagnetic separation with naïve CD4+ T cell isolation kit (Miltenyi Biotec, 130-094-131) according to the supplier recommendations. Naïve CD4+ T cells were co-cultured with autologous mDC or LCL in the presence of P2 and P4 peptides. The CD4+ T cells were re-stimulated periodically, about every 10-12 days.
(§3) The ability of the peptides to generate antigen specific CD4+ T cells was evaluated by flow cytometry analysis of the TCR induced surface activation marker CD154 (CD40L) expression after overnight co-culture at resting state with autologous LCL without (no peptide) or with the peptides (P2 or P4). The surface expression of the lytic marker Fas ligand (CD178) was also evaluated by flow cytometry analysis after overnight co-culture at resting state with autologous LCL without (no peptide) or with the peptide (P4).

[2] = tested on: CD4+ T cells of patients with multiple sclerosis; assay: Surface expression of lytic marker Fas ligand (CD178) by flow cytometry; type: cell-based, human; details: CD4+ cell lines of patients MS017 (S9) and MS020 (S10)
Procedure: as §2, §3

[3] = tested on: CD4+ T cells of patients with multiple sclerosis; assay: Cytokine secretion in CD4+ T cell culture supernatants (LEGENDplex Human Th Panel); type: cell-based
From the text: as §2
The ability of the peptides to induce cytokines secretion in CD4+ T cells culture supernatants was evaluated by flow cytometry analysis after overnight co-culture at resting state with autologous mDC without (no peptide) or with the peptides (P2 or P4). Supernatants were analyzed with the LEGENDplex Human Th Panel (13-plex) (BioLegend, 740721) according to the supplier recommendations.

[4] = tested on: Experimental Auto-Immune Encephalomyelitis (EAE); assay: Therapeutic administration in MOG35-55-induced EAE; type: in vivo; details: 30 μg s.c. with alum, days 4, 9, 14, 19, vs Saline group
Procedure: The study used a total of 48 female C57BL/6 mice (Taconic Biosciences, 9 weeks old on Day 0). Mice were acclimated for 7 days prior to the first injection. Mice were assigned to groups in a balanced manner to achieve similar average weight across the groups at the start of the study.
Dosing of all mice was performed once on each of the days indicated in Table 2, s.c., at a volume of 0.05 mL/site, each mouse receiving injection at two sites, for a total of 0.1 mL/mouse/dosing day. IMCY-0189 or P4 peptide total dose was 30 μg per administration.
Lyophilized immunogenic peptide IMCY-0189 with the sequence […] (SEQ ID NO: 260), comprising an oxidoreductase motif HCPYC (SEQ ID NO: 24), a linker GW, a murine Myelin Oligodendrocyte Glycoprotein (MOG35-55) MHCII T cell epitope […] (SEQ ID NO: 261) and a flanking sequence HLYR (SEQ ID NO: 262) (Smart Bioscience) was solubilized immediately before use. Lyophilized IMCY-0189 was thawed at room temperature for 10 minutes, resuspended in Na Acetate buffer 50 mM NaCl 0.9% pH 5.4 and incubated at room temperature for 10 minutes. Reconstituted peptide was then mixed with Imject™ Alum Adjuvant before injection.
Lyophilized immunogenic peptide P4 with the sequence […] (SEQ ID NO: 27), comprising an oxidoreductase motif KHCPYC (SEQ ID NO: 50), a linker VRY, a human Myelin Oligodendrocyte Glycoprotein (MOG201-212) MHCII T cell epitope […] (SEQ ID NO: 2) and a flanking sequence TLFKK (SEQ ID NO: 263) (Smart Bioscience) was solubilized immediately before use. Lyophilized P4 was thawed at room temperature for 10 minutes, resuspended in Na Acetate buffer 50 mM NaCl 0.9% pH 5.4 and incubated at room temperature for 10 minutes. Reconstituted peptide was then mixed with Imject™ Alum Adjuvant before injection.
EAE was induced in all mice as follows: • Day 0, Hour 0—Immunization with a peptide corresponding to the amino acids 35-55 of MOG (MOG35-55)/CFA • Day 0, Hour 2—Injection of pertussis toxin • Day 1, Hour 0—2nd injection of pertussis toxin (24 hours after initial immunization).
Mice were injected subcutaneously at two sites in the back with the emulsion component (containing MOG35-55) of Hooke Kit™ MOG35-55/CFA Emulsion PTX, catalog number EK-2110 (lot #131, Hooke Laboratories, Lawrence MA). One site of injection was in the area of upper back, approximately 1 cm caudal of the neck line. The second site was in the area of lower back, approximately 2 cm cranial of the base of the tail. The injection volume was 0.1 mL at each site. Each mouse received 200 μg of MOG35-55.
Within 2 hours of the injection of emulsion, and then again 24 hours after the injection of emulsion, the pertussis toxin component of the kit was administered intraperitoneally. The pertussis toxin (lot #1008, Hooke Laboratories) was administered at 90 ng/dose for both injections and the volume of each injection was 0.1 mL.
Animals were scored daily starting from Day 7 to the end of the study. Scoring was performed blind, by a person unaware of both treatment and of previous scores for each mouse. In-between scores were assigned when the clinical signs fell between two above defined scores.
On Day 28, blood was collected from all mice into gel clot activator tubes and allowed to clot at room temperature for ˜30 minutes. Blood is then centrifuged at ˜10000 g for 5 minutes. Serum was transferred into Eppendorf tubes and stored at −80° C. until shipment to Quanterix™. Serum Neurofilament light (NF-L) protein levels were quantified using Simoa® NF-light Advantage kit, a digital immunoassay for the quantitative determination of NF-L in serum, plasma and CSF. The used antibodies (Uman Diagnostics, Umea Sweden) also cross react with murine, bovine and macaque NF-L epitopes and as such, this assay can be used for research with these species. All samples were tested in duplicate at a dilution factor of 40×. […]

autologous LCL = assay: Cytolytic activity: apoptosis of autologous LCL (Annexin V); type: cell-based, human; details: peptide-loaded labelled autologous LCL co-cultured with P4-specific CD4+ T cell lines from patients MS017 (S7), MS026 (S12), MS028 (S11) and MS029 (S9)
Procedure: as §1
The cytolytic activity of the antigen specific CD4+ T cells was evaluated by quantifying the apoptosis induced on LCL used as antigen presenting cells. Fluorescently labelled autologous LCL, loaded or not with the peptide (P4), were overnight co-cultured at resting state with specific CD4+ T cells, and LCL apoptosis was quantified by flow cytometry through Annexin V staining. Considering the apoptosis percentage of unloaded LCL, used as control, the percentage of specific apoptosis was calculated as follows

[5] = target: T1, soluble HLA-DRB1*04:01 human MHC II protein (human); assay: soluble-phase competition vs biotin-tagged control peptide, Eu3+-streptavidin fluorescence (FIG. 3)
T1 construct: Soluble protein purchased from the Benaroya Research Institute; also called HLA-DR4; DR4
Procedure: (§4) To test the binding of the immunogenic peptides to MHCII molecules, a soluble phase competition assay is performed. […] As binding approaches its equilibrium (18h), biotin-labelled peptide/MHC II complexes are captured, separated from unbound reagents, and quantitatively detected by time-resolved fluorescence (Eu³⁺ streptavidin, Perkin Elmer, Brussels, Belgium). […] Data are processed and plotted to ascertain dose-dependent binding properties of test peptides. All the tests are performed in triplicates.

[6] = target: T2, soluble HLA-DRB1*03:01 human MHC II protein (human); assay: soluble-phase competition vs biotin-tagged control peptide, Eu3+-streptavidin fluorescence (FIG. 2)
T2 construct: Soluble protein purchased from the Benaroya Research Institute; also called HLA-DR3; DR3
Procedure: as §4

[7] = P4-specific CD4+ cell lines of patients MS024 (S20), MS017 (S9), MS026 (S13), MS028 (S11) and MS029 (S9)
[8] = culture supernatant of MS017 (S12) and MS024 (S20) CD4+ cell lines, P4 vs S-WT epitope peptide

Q: Which results are given for KHCPYCVRYFLRVPSWKITLFKK [P4]?
A: specific induction of effector cells (CD3+CD4+CD154+) ([1]; P4-specific CD4+ cell lines of patients MS017 (S14) and MS026 (S13)): specific induction; specific induction of effector cells (CD3+CD4+CD154+) [1, 7]: specific induction; generation of peptide-specific CD4+ T cell lines from MS patients ([1]; naive CD4+ T cells co-cultured with autologous mDC or LCL in presence of peptide): able to generate P4-specific CD4+ T cell lines from eight different MS patients; frequency of effector cells (CD3+CD4+CD154+) ([1]; patients' CD4+ cell lines, overnight co-culture with autologous LCL with peptide vs no peptide): high frequency; effector cells expressing the lytic marker Fas ligand (CD3+CD4+CD154+FasL+) [2]: specific increase; specific secretion of cytokine (IL-5) [3, 8]: specific secretion; specific secretion of cytokine (IL-5) ([3]; culture supernatant of MS017 (S15) CD4+ cell line, P4 vs C-WT epitope peptides): specific secretion; specific secretion of cytokine (IL-5) ([3]; culture supernatant of MS017 (S15), MS024 (S20) and MS026 (S14) CD4+ cell lines): specific secretion; AUC (area under the curve) of EAE scores [4]: statistically significant reduced; MMS (mean maximal score) [4]: statistically significant reduced; disease onset [4]: postponed; level of demyelination (anti-MBP stained spinal cord sections) [4]: reduced level; level of inflammation (inflammatory foci, H&E stained spinal cord sections) [4]: reduced level; serum NF-L levels ([4]; Day 28): statistically significant reduced; end score ([4]; EAE score 0-5): reduced; percentage of specific LCL apoptosis (autologous LCL): increase

Q: For “KLHRTFDPHFLRVPSWKITLFK [short S-WT, reference compound]”, which “specific induction of effector cells (CD3+CD4+CD154+)” value [1, 7] is on record?
A: specific induction

Q: And the “specific secretion of cytokine (IL-5)” value [3, 8]?
A: specific secretion

Q: What about the “percentage of specific LCL apoptosis” value (autologous LCL) of the same molecule?
A: increase

Q: Which results are given for HCPYCVRYFLRVPCWKITLF (Synthetic) [P3 peptide HCPYCVRYFLRVPCWKITLF]?
A: binding result [5]: binds; binding result [6]: binds
